Results as given in article PMC9785441, “A Broad Spectrum Antiparasitic Activity of Organotin (IV) Derivatives and Its Untargeted Proteomic Profiling Using Leishmania donovani” (Pathogens, 2022).
“Also recorded” adds a separate entry of the source.

How the values were obtained:
[1] = HEK293 cytotoxicity assay (resazurin); format: cell-based; details: HEK-293T cells, human embryonic kidney cells, max 4 µM, read-out: CC50 HEK923
Procedure: HEK-293T cells were cultured in DMEM (Gibco) supplemented with 10% heat inactivated FBS (Corning) and 1% penicillin-streptomycin (Gibco). Cells were maintained in vented T75 cell culture flasks (Thermo Scientific, Cat. 12-565-349) at 37 °C and 5% CO2, and were passaged every 72 h. […] Compounds were diluted with fresh DMEM (49 µL/well). HEK-293 cells were suspended at 4 × 10^5 cells/mL in DMEM and added to each well (50 µL/well) to give 2 × 10^4 cells/well. Assay plates were incubated at 37 °C and 5% CO2 for 48 h, followed by addition of 20 µL of 0.5 mM resazurin (Alfa Aesar, Cat. B21187) in PBS to each well. […] In each assay plate, cell viability was normalized relative to positive and negative controls. Assays were performed in biological and technical duplicates, and dose–response and CC50 data were generated with GraphPad Prism 5 using a sigmoidal four parameter logistic curve.

[2] = Cytotoxicity to B10R host cells (nuclei count in the amastigote assay); format: cell-based; details: mouse, B10R monocyte cells co-cultured with L. donovani parasites
Procedure: For the intracellular amastigote stage assay, L. donovani was incubated at a density of 1 × 10^6 parasites/mL for six days at 29 °C before infection to enrich the proportion of metacyclic promastigotes. B10R monocyte cell lines were cultured in RPMI supplemented with 10% FBS and 1%penicillin/streptomycin at 37 °C in 5% CO2. After 72 h, cells were counted with a hemocytometer and mixed with the six-day-old parasites. […] Plates were incubated at 37 °C and 5% CO2 for 72 h. Cultures were then fixed with 4% formaldehyde solution for 30 min and stained with 0.5 µg/mL DAPI (diamidino-2-phenylindole). Plates were then imaged using an ImageXpress Micro XLS automated high content imager (Molecular Devices, San Jose, CA, USA) using a 10× air objective. A custom image analysis module generated in ImageXpress was used to count the nuclei of host and parasite cells. EC50 values were obtained using the GraphPad Prism 9 Software with biological triplicates.

[3] = test system: L. donovani-infected B10R cells; assay: Untargeted proteomics of L. donovani-infected B10R cells treated and untreated with MS26Et3; format: cell-based, mouse / Leishmania donovani; details: L. donovani-infected B10R cells exposed to compound vs not exposed
Procedure: B10R culture cells (infected or uninfected with Leishmanaia donovani) were collected and washed twice in cold PBS. The cell pellets (~10^6 cells/pellet) were snap-frozen and stored at −80 °C. To extract the proteins, pellets were thawed, and the cells were resuspended in 200 µL buffer containing 6 M urea, 7% SDS, 50 mM TEAB, protease inhibitor cocktail (Roche, cat. no. A32963), phosphatase inhibitor (Roche, cat. no. A32957), with pH adjusted to 8.1 with phosphoric acid. The cells were then lysed using a sonicating probe 200 µL. The samples were reduced in 500 mM DTT at 47 °C for 30 min and alkylated in 500 mM IAA in the absence of light, at room temperature for 45 min, followed by quenching in 500 mM DTT for 5 min. The samples were then acidified with 12% phosphoric acid and mixed in a 7:1 ratio with binding buffer containing 90% methanol, 50 mM TEAB, pH 7.1, adjusted with phosphoric acid and loaded on to S-Trap columns (Protifi). […] The concentration of desalted peptides was determined and 50 µg aliquots of each sample were dried in a speed vacuum concentrator. […]
Basic pH reverse-phase LC and data acquisition through LC–MS2/MS3 were performed as previously described. […] Fractions were then analyzed using tandem mass spectrometry (MS2/MS3) on an Orbitrap Fusion mass spectrometer (ThermoFisher, Waltham, MA, USA) with an in-line EASY-nLC 1000 instrument (ThermoFisher, Waltham, MA, USA). […]

COc1ccc(NC(=O)CCC(=O)O)cc1 [MS26, 4-(4-methoxyphenylamino)-4 oxobutanoic acid]
CC50 at 48 h [1]: > 4 µM
CC50 at 72 h [2]: 2.38 µM

C[CH2][Sn]([CH2]C)([CH2]C)[O]C(=O)CCC(=O)Nc1ccc(OC)cc1 [MS26Et3]
Rab7 expression / abundance [3]: reduced expression; also recorded: differentially expressed; also recorded: decreased in abundance
